Experimental data published in PubChem BioAssay AID248 (DTP/NCI, 2004).
“And” between values parts separate entries of the source, which are not always exact repeats. Equal entries are not always repeated. Toxic doses and inconclusive results are not listed. No stated cut-off is given here; in the data, active means T/C of 150% or more; inactive means T/C below 125%.

Tested on: L1210 leukemia ip in BDF1 mice, survival T/C
Experiment: NCI In Vivo Anticancer Drug Screen. Data for tumor model L1210 Leukemia (intraperitoneal) in B6D2F1 (BDF1) mice
Conditions: endpoint: mean survival time, higher = longer survival
How it was run: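 Ratio derived from survival: compound-dosed mice over vehicle-dosed mice, all bearing a transplantable tumor.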

[1] = dose: 100.0 mg/kg/injection, schedule: Q01DX009 (ip), vehicle: Klucel (hydroxypropylcellulose) (HPC)
[2] = dose: 100.0 mg/kg/injection, schedule: Q01DX001 (ip), vehicle: Klucel (hydroxypropylcellulose) (HPC)
[3] = dose: 100.0 mg/kg/injection, schedule: Q01DX009 (ip), vehicle: saline with Tween-80
[4] = dose: 200.0 mg/kg/injection, schedule: Q01DX009 (ip), vehicle: saline with Tween-80
[5] = dose: 400.0 mg/kg/injection, schedule: Q01DX009 (ip), vehicle: saline with Tween-80
[6] = dose: 200.0 mg/kg/injection, schedule: Q01DX009 (ip), vehicle: Klucel (hydroxypropylcellulose) (HPC)
[7] = dose: 400.0 mg/kg/injection, schedule: Q01DX009 (ip), vehicle: Klucel (hydroxypropylcellulose) (HPC)
[8] = dose: 100.0 mg/kg/injection, schedule: Q01DX001 (ip), vehicle: saline
[9] = dose: 200.0 mg/kg/injection, schedule: Q01DX001 (ip), vehicle: saline
[10] = dose: 100.0 mg/kg/injection, schedule: Q04DX003 (ip), vehicle: Klucel (hydroxypropylcellulose) (HPC)
[11] = dose: 200.0 mg/kg/injection, schedule: Q04DX003 (ip), vehicle: Klucel (hydroxypropylcellulose) (HPC)

Measured: T/C

Clc1ccc(Cl)c(-c2csc(-c3ccncc3)n2)c1
inactive: dose: 25.0 mg/kg/injection, schedule: Q01DX009 (ip), vehicle: Klucel (hydroxypropylcellulose) (HPC) 116 % of control | dose: 50.0 mg/kg/injection, schedule: Q01DX009 (ip), vehicle: Klucel (hydroxypropylcellulose) (HPC) 100 % of control | [1] 97 % of control and 103 % of control

NCCNC(=S)S
inactive: [2] 103 % of control | [3] 93 % of control | dose: 100.0 mg/kg/injection, schedule: Q04DX003 (ip), vehicle: saline with Tween-80 93 % of control | dose: 200.0 mg/kg/injection, schedule: Q01DX001 (ip), vehicle: Klucel (hydroxypropylcellulose) (HPC) 95 % of control | [4] 87 % of control | dose: 200.0 mg/kg/injection, schedule: Q04DX003 (ip), vehicle: saline with Tween-80 95 % of control | dose: 400.0 mg/kg/injection, schedule: Q01DX001 (ip), vehicle: Klucel (hydroxypropylcellulose) (HPC) 103 % of control | [5] 86 % of control | dose: 400.0 mg/kg/injection, schedule: Q04DX003 (ip), vehicle: saline with Tween-80 91 % of control

O=c1[nH]c2ccccc2c(=O)n1CCCN1CCN(c2cccc(Cl)c2)CC1
inactive: [1] 108 % of control | dose: 100.0 mg/kg/injection, schedule: Q04DX002 (ip), vehicle: Klucel (hydroxypropylcellulose) (HPC) 111 % of control | [6] 108 % of control | dose: 200.0 mg/kg/injection, schedule: Q04DX002 (ip), vehicle: Klucel (hydroxypropylcellulose) (HPC) 114 % of control | [7] 108 % of control | dose: 400.0 mg/kg/injection, schedule: Q04DX002 (ip), vehicle: Klucel (hydroxypropylcellulose) (HPC) 104 % of control

CCOC(=O)CCC(=O)c1cccc([N+](=O)[O-])c1
inactive: [3] 98 % of control | [4] 96 % of control | [5] 96 % of control

O=C(O)c1cc(O)c2c(c1)C(C1c3cc(C(=O)O)cc(O)c3C(=O)c3c(OC4OC(CO)C(O)C(O)C4O)cccc31)c1cccc(OC3OC(CO)C(O)C(O)C3O)c1C2=O (stereo unspecified)
inactive: [8] 98 % of control and 101 % of control | [9] 97 % of control | dose: 400.0 mg/kg/injection, schedule: Q01DX001 (ip), vehicle: saline 103 % of control and 106 % of control

CC(=O)N[C@H](CO)[C@H](O)c1ccc([N+](=O)[O-])cc1
inactive: dose: 100.0 mg/kg/injection, schedule: Q04DX003 (ip), vehicle: saline sonified 98 % of control | dose: 200.0 mg/kg/injection, schedule: Q04DX003 (ip), vehicle: saline sonified 104 % of control | dose: 400.0 mg/kg/injection, schedule: Q04DX003 (ip), vehicle: saline sonified 103 % of control

O=[N+]([O-])c1ccc(/C=C/C2OCCO2)cc1
inactive: dose: 50.0 mg/kg/injection, schedule: Q01DX001 (ip), vehicle: saline 98 % of control | [8] 96 % of control | [9] 101 % of control

O=C1c2cccc3cc([N+](=O)[O-])cc(c23)C(=O)N1CC1CCCO1 (stereo unspecified)
inactive: dose: 100.0 mg/kg/injection, schedule: Q04DX003 (ip), vehicle: carboxymethylcellulose (CMC) 94 % of control | dose: 200.0 mg/kg/injection, schedule: Q04DX003 (ip), vehicle: carboxymethylcellulose (CMC) 96 % of control | dose: 400.0 mg/kg/injection, schedule: Q04DX003 (ip), vehicle: carboxymethylcellulose (CMC) 107 % of control

Cc1cc2oc(/C=N\Nc3nc4ccccc4s3)c(C)c2cc1C
inactive: [1] 94 % of control | [6] 96 % of control | [7] 108 % of control

O=C(Cc1cccc2ccccc12)N/N=C/c1ccc(Cl)cc1Cl
inactive: [3] 96 % of control | [4] 93 % of control

Nc1ccc2c(c1)-n1cccc1C2=O
inactive: [10] 104 % of control | [11] 101 % of control

Brc1ccc(N2N=C(c3ccccc3)N(c3ccc(Br)cc3)N=C2c2ccccc2)cc1
inactive: dose: 100.0 mg/kg/injection, schedule: Q01DX001 (ip), vehicle: other 90 % of control | dose: 100.0 mg/kg/injection, schedule: Q04DX003 (ip), vehicle: other 104 % of control | dose: 200.0 mg/kg/injection, schedule: Q01DX001 (ip), vehicle: other 93 % of control | dose: 200.0 mg/kg/injection, schedule: Q04DX003 (ip), vehicle: other 89 % of control | dose: 400.0 mg/kg/injection, schedule: Q01DX001 (ip), vehicle: other 95 % of control | dose: 400.0 mg/kg/injection, schedule: Q04DX003 (ip), vehicle: other 89 % of control

CCCCOP(=O)(NC1CCCCC1)OCCCC
inactive: dose: 50.0 mg/kg/injection, schedule: Q04DX002 (ip), vehicle: saline with Tween-80 107 % of control | dose: 100.0 mg/kg/injection, schedule: Q04DX002 (ip), vehicle: saline with Tween-80 96 % of control | dose: 200.0 mg/kg/injection, schedule: Q04DX002 (ip), vehicle: saline with Tween-80 104 % of control

Cc1cc(C)c2c(=O)[nH][nH]c2n1
inactive: dose: 50.0 mg/kg/injection, schedule: Q01DX009 (ip), vehicle: saline with Tween-80 105 % of control | [3] 100 % of control | [4] 91 % of control

[B-][N+](C)(C)C
inactive: dose: 3.13 mg/kg/injection, schedule: Q01DX001 (ip), vehicle: Klucel (hydroxypropylcellulose) (HPC) 99 % of control | dose: 6.25 mg/kg/injection, schedule: Q01DX001 (ip), vehicle: Klucel (hydroxypropylcellulose) (HPC) 101 % of control | dose: 12.5 mg/kg/injection, schedule: Q01DX001 (ip), vehicle: Klucel (hydroxypropylcellulose) (HPC) 99 % of control | dose: 25.0 mg/kg/injection, schedule: Q01DX001 (ip), vehicle: Klucel (hydroxypropylcellulose) (HPC) 106 % of control | dose: 50.0 mg/kg/injection, schedule: Q01DX001 (ip), vehicle: Klucel (hydroxypropylcellulose) (HPC) 109 % of control | [2] 103 % of control

CCCCCCCCCCCCN(CCCCCCCCCCCC)S(=O)(=O)c1ccc(Cl)c([N+](=O)[O-])c1
inactive: [10] 94 % of control | [11] 94 % of control | dose: 400.0 mg/kg/injection, schedule: Q04DX003 (ip), vehicle: Klucel (hydroxypropylcellulose) (HPC) 104 % of control
